Source: ChEMBL document CHEMBL3217462, “FP Tethering: a screening technique to rapidly identify compounds that disrupt protein-protein interactions” (Medchemcomm, 2014)

Key:
Homo sapiens [1] = organism: Homo sapiens; assay: Binding affinity to CBP KIX domain H602C mutant (unknown origin) after 1 hr by Fluorescent polarization assay
Homo sapiens [2] = organism: Homo sapiens; assay: Binding affinity to CBP KIX domain H602C mutant (unknown origin) assessed as increase in binding affinity constant for MLL by fluorescence polarization tethering assay
Homo sapiens [3] = organism: Homo sapiens; assay: Displacement of fluorescent-labelled pKID from CBP KIX domain H602C mutant (unknown origin) after 1 hr by Fluorescent polarization assay; conditions: concentration not given here
Homo sapiens [4] = organism: Homo sapiens; assay: Binding affinity to CBP KIX domain H602C mutant (unknown origin) assessed as increase in binding affinity constant for c-Myb by fluorescence polarization tethering assay
Homo sapiens [5] = organism: Homo sapiens; assay: Binding affinity to CBP KIX domain H602C mutant (unknown origin) assessed as increase in binding affinity constant for phosphorylated KID by fluorescence polarization tethering assay
Homo sapiens [6] = organism: Homo sapiens; assay: Displacement of fluorescent-labelled MLL from CBP KIX domain N627C mutant (unknown origin) at 250 uM after 1 hr by Fluorescent polarization assay
Homo sapiens [7] = organism: Homo sapiens; assay: (§1) Displacement of fluorescent-labelled MLL from CBP KIX domain N627C mutant (unknown origin) after 1 hr by Fluorescent polarization assay
[8] = as §1; design: species or system Homo sapiens
Homo sapiens [9] = organism: Homo sapiens; assay: Binding affinity to CBP KIX domain N627C mutant (unknown origin) after 1 hr by Fluorescent polarization assay

| SMILES | Activity (Homo sapiens [1]) [%] | fold change (FC) (Homo sapiens [2]) | inhibition (Homo sapiens [3]) [%] | fold change (FC) (Homo sapiens [4]) | fold change (FC) (Homo sapiens [5]) | inhibition (Homo sapiens [6]) [%] | inhibition (Homo sapiens [7]) | IC50 [8] [µM] | Activity (Homo sapiens [9]) [%] |
| --- | --- | --- | --- | --- | --- | --- | --- | --- | --- |
| CC(=O)Nc1ccc(Cl)c(NC(=O)NCCSSCCN(C)C)c1 | 71 | 9 | 24 | 9 | 6.5 |  |  |  |  |
| CN(C)CCSSCCNC(=O)C1CCN(C(=O)c2ccccc2Nc2ccccc2)CC1 | 15 |  | 22 |  |  |  |  |  |  |
| CN(C)CCSSCCC(=O)N1CCC(O)(c2ccc(Cl)c(C(F)(F)F)c2)CC1 |  |  |  |  |  | 44 | Dose-dependent effect | 68 | 67 |
| COc1ccc2cc([C@H](C)C(=O)NCCSSCCN)ccc2c1 |  |  |  |  |  | 32 |  |  | 36 |
